Source: PMC6739215, “One-bead one-compound combinatorial library derived targeting ligands for detection and treatment of oral squamous cancer” (Oncotarget, 2019)
Entries after “also recorded” stand apart in the source; their conditions may differ. Read-outs that look alike come from different tables or passages of the source.

Tests used:
[1] = tested on: normal human keratinocyte (NHK) cells; assay: MTS assay evaluation of cytotoxicity; format: cell-based; conditions: 48 hours treatment, up to 50 μM
Description: MTS assay was used to evaluate the potential cytotoxicity of peptides against normal human keratinocytes. Briefly, 2 × 10^3 NHK cells were seeded in 96 well tissue culture plates and analysis was performed 48 hours after treatment with LLY12 and LLY13 by adding 20 μL per well of the tetrazolium salt MTS, 3-(4,5-dimethylthiazol-2-yl)-5-(3-carboxymethoxyphenyl)-2-(4-sulfophenyl)-2H-tetrazolium for 2 hours at 37° C. The 96 well plates were read on a VERSA max tunable microplate reader at 490 nm. Similar to the MTT assay, the reduction of MTS solutions to formazan reflects mitochondrial activity and cell viability by proxy.

[2] = tested on: human oral cancer cells HSC-3; assay: Flow cytometry study of binding affinity of ligands; conditions: HSC-3 cells; for Kd: biotinylated peptide followed by streptavidin-PE
Description: Flow cytometry was employed to compare the binging affinity of LLY12 and LLY13 [25–27]. Confluent tumor cells (80–90%) were dissociated with 0.05% trypsin-EDTA and neutralized with culture medium. After washed three times with F10 buffer, containing PBS with 10% FBS and 1 mM MnCl2 , the human oral cancer cells HSC-3 (3 × 10^5) were added with different concentration of biotinylated LLY12 and LLY13 in 50 μL F10 media for 30 minutes on ice. Then each sample was washed three times with 1 mL PBS containing 1% FBS. Samples thereafter were incubated with a 1:500 dilution of streptavidin-phycoerythrin (1 mg/mL) for 30 min on ice followed by a single wash with 1 mL of PBS containing 1% FBS. Finally, the samples in PBS were analyzed by flow cytometry and the mean fluorescence intensity (MFI) was acquired for each individual sample.

[3] = tested on: HSC-3 cells and MOK-101 cells; assay: Peptide induced cell uptake assay (confocal); format: cell-based, human; conditions: HSC-3 and MOK-101 cells, up to 3 hours, cytoplasm and nucleus
Description: Peptide induced cell uptake assay was used to investigate endocytic uptake of the targeting peptide by live OSC cells. Biotinylated LLY13 was pre-incubated (50 μM) with streptavidin-Alexa488 (1mg/mL) for 2 hours at room temperature and then at 4° C overnight to form the biotin-peptides/streptavidin-Alexa488 complex. Oral cancer cells of HSC-3 cells and MOK-101 were seeded in chamber slides at a concentration of 2.3 × 10^4 cells. After 60% confluency, biotin-peptides-streptavidin-Alexa488 complexes were added at different time intervals (30 min, one hour, two hours and three hours). By the end of experiments, 1:2000 dilution of DAPI was added to the specimens. Peptide induced endocytic uptake of cancer cells was observed under confocal laser scanning microscope.

| Substance | cytotoxicity (MTS assay) [1] | Kd ([2]; Figure 4, read-out: Kd) [µM] | Kd ([2]; read-out: Kd value) [µM] | Bmax value (maximum binding capacity) ([2]; flow cytometry) | maximum binding capacity in comparison to LLY12 ([2]; flow cytometry) | Bmax (maximum binding) ([2]; flow cytometry, Figure 4) [AU] | cellular uptake (internalization) by live OSC cells [3] |
| --- | --- | --- | --- | --- | --- | --- | --- |
| cyclic cdGYG (Hyp) Wc [LLY13] | no obvious cytotoxicity; also recorded: not cytotoxic | 1.23 | 1.27 | 764 | around 3 fold | 764 |  |
| cyclic cdG (Nle) G(Hyp) Lc [LLY12] | no obvious cytotoxicity; also recorded: not cytotoxic |  | 0.87 | 248 |  | 248 | not observed |
